Common to all, as to assay: inhibition of tumour cell growth, NCI panel, 48 h
In assay [1] the test system is SNB-19 CNS.
For assay [2], the system named is SW-620 colon.
The test system of assay [3] is SK-MEL-2 melanoma.
Assay [4] concerns SF-539 CNS.
In assay [5] the test system is OVCAR-8 ovarian.
For assay [6], the system named is A498 renal.
Assay [7] has as its system OVCAR-3 ovarian.
Assay [8] deals with MCF7 breast.
The test system of assay [9] is NCI-H23 lung.
Assay [10] relates to RXF 393 renal.

Results on nine compounds are retold here after PubChem BioAssay (NCI).

Several values for one entry are separate records, joined by “and”; a condition that tells them apart may be missing. Identical values can stand only once.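 These data come from cells grown in 96-well plates and exposed to compound for 48 hours at five concentrations. At the GI50, growth is halved. Definition used: TGI = concentration required for complete inhibition of growth.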

For the compound `CCOC(=O)C1=C(C)NC2SC(=O)/C(=C\c3cccc(Cl)c3)N2C1c1ccccc1` (stereo not given), the GI50 in assay [1], in [2], in assay [3], in assay [4], in assay [5] and in [6] was above 100 µM each time. In addition, the GI50 in [7] is above 100 µM; in assay [8] it was 31.2 µM; in assay [9] it was above 100 µM; in [10], above 100 µM. Besides, the TGI in assay [1], in assay [2], in assay [3], in assay [4], in assay [5] and in [6] was above 100 µM in each case. Moreover, the TGI in assay [7], in assay [8], in assay [9] and in assay [10] was above 100 µM each time.

Regarding `CC(=O)OC1C(O)C(C)OC(OC2C(OC(=O)C3CCC4C(C3)OC3(CC(OC(=O)/C=C/c5ccccc5)C(C)CO3)C43CO3)OC(C)C(O)C2OC(C)=O)C1O` (stereo not given), the TGI in [1] was found to be 0.0316 µM; in assay [2] it was 0.184 µM; in [3], 0.0189 µM; in [4] it was 0.0285 µM; in assay [5], 0.198 µM; in assay [6], 0.188 µM. Moreover, the TGI in assay [7] worked out at 0.0451 µM; in assay [8] it was 0.0825 µM; in assay [9], 0.0615 µM; in assay [10], 0.121 µM.

Regarding `CC1(C)N=C(N)N=C(N)N1c1ccc(OCC(=O)Nc2ccc(S(=O)(=O)F)cc2Cl)c(Cl)c1`, the GI50 in assay [1] was above 100 µM; in [2] it was 1.08 µM; in assay [3] it was above 100 µM; in assay [4], 4.77 µM; in assay [5] it was 7.79 µM; in assay [6], 13.3 µM. Moreover, the GI50 in assay [7] was 5.34 µM; in [8], 2.24 µM; in assay [9], 4.37 µM; in assay [10] it was 17.5 µM. Further, the TGI in assay [1], in assay [2], in [3], in assay [4], in [5] and in [6] was above 100 µM each time. The TGI in [7], in assay [8], in [9] and in assay [10] was above 100 µM each time.

Turning to `NS(=O)(=O)c1ccc(N=Nc2c(O)[nH]c3ccc(C(=O)NCCCn4ccnc4)cc23)cc1`, the GI50 in assay [1], in assay [2], in assay [3], in assay [4], in [5] and in assay [6] was above 25 µM in each case. Further, the GI50 in [7], in assay [8], in assay [9] and in assay [10] was above 25 µM in each case. Also, the TGI in assay [1], in assay [2], in [3], in assay [4], in [5] and in assay [6] was above 25 µM throughout. The TGI in assay [7], in assay [8], in assay [9] and in assay [10] was above 25 µM each time.

As to `Cc1ccc(C2=NN(c3ccc(S(=O)(=O)NC(=O)NCc4ccccc4)cc3)C(c3ccc(N(C)C)cc3)C2)c(C)c1` (stereo not given), the GI50 in assay [1] was 4.6 µM; in [2] it was 3.94 µM; in [3], 3.32 µM; in assay [4] it was 2.43 µM; in [5] it was 3.81 µM; in assay [6], 3.08 µM. Also, the GI50 in assay [7] is 2.24 µM; in assay [8], 2.99 µM; in assay [9], 3.6 µM; in assay [10], 3 µM. Further, the TGI in assay [1] was above 100 µM; in assay [2], 23.7 µM; in assay [3] it was 8.85 µM; in [4] it was 6.02 µM; in assay [5] it was above 100 µM; in assay [6], 12.5 µM. In addition, the TGI came to 4.95 µM in [7], 31.2 µM in assay [8], 17.8 µM in assay [9] and 9.8 µM in assay [10].

For `O=C(CCN1CCCCC1)c1csc2ccccc12`, the TGI in [1], in assay [2], in [3], in assay [4], in assay [5] and in assay [6] was above 100 µM each time. Besides, the TGI in assay [7] is above 100 µM; in assay [8], 48.1 µM; in [9], above 100 µM; in assay [10], above 100 µM.

With `CN1C(=O)C(N=Nc2ccc([N+](=O)[O-])cc2)SC1=S` (stereo not given), the GI50 in assay [1] was 6.62 µM and 11 µM; in assay [2], 2.53 µM and 8.17 µM; in [3], 8.98 µM and 5.29 µM; in [4], 6.57 µM and 7.08 µM; in [5], 4.38 µM and 11 µM; in [6], 4.1 µM and 4.16 µM. Further, the GI50 in assay [7] was 2.7 µM and 10.9 µM; in [8], 6.1 µM and 16.6 µM; in [9] it was 3.89 µM and 7.46 µM; in [10], 16.6 µM and 12.5 µM. The TGI in assay [1] is above 100 µM; in [2], above 100 µM; in assay [3], 37.8 µM and 42.5 µM; in [4] it was 58.1 µM and 70.4 µM; in assay [5] it was above 100 µM; in [6], 18.3 µM and 51 µM. Further, the TGI in assay [7] was 12.9 µM and 71.9 µM; in assay [8], above 100 µM; in assay [9], 77.1 µM and 76.9 µM; in assay [10] it was 97.4 µM and 77.5 µM.

For the compound `CCN1C(=O)/C(=c2\sc3n(c2=O)C2C(NN=3)N(CC)C(=O)N2CC)c2ccccc21` (stereo not given), the GI50 in [1] was 0.75 µM; in assay [2], 0.426 µM; in assay [3], 3.21 µM; in [4], 0.271 µM; in assay [5] it was 0.665 µM; in assay [6] it was 0.181 µM. For the same compound, the GI50 was 0.323 µM in assay [7], 0.357 µM in assay [8], 0.808 µM in assay [9] and 0.279 µM in [10]. Also, the TGI in [1] is 63 µM; in [2] it was above 100 µM; in [3], 44.2 µM; in [4] it was 0.937 µM; in assay [5] it was above 100 µM; in assay [6] it was 0.697 µM. Besides, the TGI was 3.32 µM in [7], above 100 µM in assay [8], 17.6 µM in assay [9] and 0.814 µM in assay [10].

Regarding `O=C(O)CN1C(=O)OC(c2ccccc2)C1=O` (stereo not given), the TGI in [1], in assay [2], in assay [3], in assay [4], in [5] and in [6] was above 100 µM in each case. Further, the TGI in assay [7], in [8], in [9] and in assay [10] was above 100 µM each time.
